Experimental findings from US8445503B2, “Inhibitors of polo-like kinase” (Elan Pharmaceuticals, Inc., priority 2009, dated 2013) are described below.

Some results are limits rather than exact numbers.

Format in all cases: biochemical
One assay addresses GST-PLK1 (Homo sapiens, UniProt P53350). In words: PLK TR-FRET peptide assay, PLK1. The settings on record: read-out: Plk1 IC50. A general note: In TR-FRET formats the signal depends on donor and acceptor labels being close together.
The next assay has as its target T1, GST-PLK2 (Homo sapiens, UniProt Q9NYY3).
T1 construct: purchased CarnaBio
In words: PLK TR-FRET peptide assay, PLK2. The conditions noted are these: PLK TR-FRET peptide assay, GST-PLK2; read-out: Plk2 IC50.

The target in the next assay is T2, GST-PLK3 (Homo sapiens, UniProt Q9H4B4).
T2 construct: purchased CarnaBio
The experiment in a line: PLK TR-FRET peptide assay, PLK3. The settings on record: PLK TR-FRET peptide assay, GST-PLK3; read-out: Plk3 IC50.

T1 sequence (Q9NYY3 whole entry): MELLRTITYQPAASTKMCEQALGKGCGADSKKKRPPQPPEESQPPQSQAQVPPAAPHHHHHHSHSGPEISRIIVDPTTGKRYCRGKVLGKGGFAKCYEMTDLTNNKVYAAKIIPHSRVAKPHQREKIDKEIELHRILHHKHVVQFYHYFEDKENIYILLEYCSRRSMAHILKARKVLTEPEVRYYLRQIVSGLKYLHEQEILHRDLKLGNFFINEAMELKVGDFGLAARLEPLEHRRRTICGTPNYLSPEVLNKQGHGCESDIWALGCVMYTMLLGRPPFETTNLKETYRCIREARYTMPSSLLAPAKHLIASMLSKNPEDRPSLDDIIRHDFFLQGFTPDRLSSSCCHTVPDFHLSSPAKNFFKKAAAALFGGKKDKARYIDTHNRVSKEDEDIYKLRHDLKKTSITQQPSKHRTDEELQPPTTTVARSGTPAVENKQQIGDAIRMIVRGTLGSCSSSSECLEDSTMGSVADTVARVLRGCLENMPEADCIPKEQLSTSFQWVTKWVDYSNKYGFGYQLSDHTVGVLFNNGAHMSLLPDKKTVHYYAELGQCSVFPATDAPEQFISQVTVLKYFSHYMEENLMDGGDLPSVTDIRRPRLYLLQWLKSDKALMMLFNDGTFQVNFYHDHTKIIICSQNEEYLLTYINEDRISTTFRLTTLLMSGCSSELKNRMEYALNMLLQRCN
T2 sequence (Q9H4B4 whole entry): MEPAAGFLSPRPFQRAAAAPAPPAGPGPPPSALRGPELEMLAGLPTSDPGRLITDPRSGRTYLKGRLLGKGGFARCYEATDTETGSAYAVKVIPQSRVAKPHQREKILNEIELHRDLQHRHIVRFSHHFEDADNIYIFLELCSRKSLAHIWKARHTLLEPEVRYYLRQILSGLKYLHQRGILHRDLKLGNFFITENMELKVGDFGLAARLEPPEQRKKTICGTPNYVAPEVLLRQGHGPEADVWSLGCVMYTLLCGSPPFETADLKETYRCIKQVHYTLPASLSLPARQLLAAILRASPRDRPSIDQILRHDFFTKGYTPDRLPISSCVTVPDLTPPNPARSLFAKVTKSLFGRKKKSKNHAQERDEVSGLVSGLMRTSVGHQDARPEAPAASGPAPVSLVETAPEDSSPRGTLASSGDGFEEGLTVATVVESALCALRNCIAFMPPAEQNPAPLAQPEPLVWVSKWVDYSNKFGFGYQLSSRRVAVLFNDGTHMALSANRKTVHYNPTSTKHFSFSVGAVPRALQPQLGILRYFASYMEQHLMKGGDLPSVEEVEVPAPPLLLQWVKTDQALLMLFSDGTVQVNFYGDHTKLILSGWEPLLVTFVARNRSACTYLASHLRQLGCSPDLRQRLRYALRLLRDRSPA
GST-PLK1, sequence (P53350 whole entry): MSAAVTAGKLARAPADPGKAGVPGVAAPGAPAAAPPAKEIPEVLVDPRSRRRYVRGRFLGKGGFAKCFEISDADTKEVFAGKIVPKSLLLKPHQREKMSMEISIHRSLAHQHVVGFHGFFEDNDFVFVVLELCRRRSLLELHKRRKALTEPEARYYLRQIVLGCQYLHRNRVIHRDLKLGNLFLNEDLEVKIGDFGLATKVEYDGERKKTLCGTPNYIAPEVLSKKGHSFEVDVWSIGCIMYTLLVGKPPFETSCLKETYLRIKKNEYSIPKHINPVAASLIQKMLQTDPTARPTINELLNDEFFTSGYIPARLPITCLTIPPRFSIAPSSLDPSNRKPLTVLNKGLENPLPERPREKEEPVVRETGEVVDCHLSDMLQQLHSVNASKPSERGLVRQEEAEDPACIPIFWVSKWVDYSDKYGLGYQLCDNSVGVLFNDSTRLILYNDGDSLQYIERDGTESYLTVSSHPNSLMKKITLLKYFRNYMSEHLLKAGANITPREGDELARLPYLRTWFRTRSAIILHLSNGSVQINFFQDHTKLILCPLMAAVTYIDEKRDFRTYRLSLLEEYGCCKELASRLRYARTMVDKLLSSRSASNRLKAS

The term IC50 denotes the concentration that inhibits the measured activity by half. On to `CC[C@@H]1C(=O)N(C)c2cnc(-n3cnc(C(=O)N4CCOCC4)c3)nc2N1C1CCCC1` [Example 45, (R)-8-cyclopentyl-7-ethyl-5-methyl-2-(4-(morpholine-4-carbonyl)-1H-imidazol-1-yl)-7,8-dihydropteridin-6(5H)-one], for which the results for the IC50 at GST-PLK1, on GST-PLK2 and at GST-PLK3 were 1000 to 10000 nM, under 1000 nM and 10000 to 50000 nM, respectively.

Regarding `CC[C@@H]1C(=O)N(C)c2cnc(-n3cnc(C(=O)NC)c3)nc2N1C1CCCC1` [Example 46, (R)-1-(8-cyclopentyl-7-ethyl-5-methyl-6-oxo-5,6,7,8-tetrahydropteridin-2-yl)-N-methyl-1H-imidazole-4-carboxamide], the IC50 on GST-PLK1 is under 1000 nM; at GST-PLK2 it was under 1000 nM; on GST-PLK3 it was 1000 to 10000 nM.

For `CC[C@@H]1C(=O)N(C)c2cnc(-n3cnc(-c4cscn4)c3)nc2N1C1CCCC1` [Example 54, (R)-8-cyclopentyl-7-ethyl-5-methyl-2-(4-(thiazol-4-yl)-1H-imidazol-1-yl)-7,8-dihydropteridin-6(5H)-one], the IC50 is under 1000 nM on GST-PLK1, under 1000 nM at GST-PLK2 and 1000 to 10000 nM on GST-PLK3.

For the compound `CC[C@@H]1C(=O)N(C)c2cnc(-n3cnc(C)c3)nc2N1C1CCCC1` [Example 55, (R)-8-cyclopentyl-7-ethyl-5-methyl-2-(4-methyl-1H-imidazol-1-yl)-7,8-dihydropteridin-6(5H)-one], the results for the IC50 on GST-PLK1, at GST-PLK2 and on GST-PLK3 were under 1000 nM, under 1000 nM and 10000 to 50000 nM, respectively.

Consider `CC[C@@H]1C(=O)N(C)c2cnc(-n3ccc(C(=O)O)n3)nc2N1C1CCCC1` [Example 56, (R)-1-(8-cyclopentyl-7-ethyl-5-methyl-6-oxo-5,6,7,8-tetrahydropteridin-2-yl)-1H-pyrazole-3-carboxylic acid], for which the values for the IC50 on GST-PLK1, at GST-PLK2 and at GST-PLK3 were 1000 to 10000 nM, under 1000 nM and 10000 to 50000 nM, respectively.

`CC[C@@H]1C(=O)N(C)c2cnc(-n3ccc(C(=O)NC)n3)nc2N1C1CCCC1` [Example 58, (R)-1-(8-cyclopentyl-7-ethyl-5-methyl-6-oxo-5,6,7,8-tetrahydropteridin-2-yl)-N-methyl-1H-pyrazole-3-carboxamide]: the IC50 was 1000 to 10000 nM at GST-PLK1, under 1000 nM on GST-PLK2 and over 50000 nM on GST-PLK3.

For the compound `CC[C@@H]1C(=O)N(C)c2cnc(-n3cnc(-c4cccnc4)c3)nc2N1C1CCCC1` [Example 59, (R)-8-cyclopentyl-7-ethyl-5-methyl-2-(4-(pyridin-3-yl)-1H-imidazol-1-yl)-7,8-dihydropteridin-6(5H)-one], the IC50 at GST-PLK1 was under 1000 nM; at GST-PLK2, under 1000 nM; at GST-PLK3, 1000 to 10000 nM.

Turning to `CC[C@@H]1C(=O)N(C)c2cnc(-n3ccc(C(=O)N(C)C)n3)nc2N1C1CCCC1` [Example 61, (R)-1-(8-cyclopentyl-7-ethyl-5-methyl-6-oxo-5,6,7,8-tetrahydropteridin-2-yl)-N,N-dimethyl-1H-pyrazole-3-carboxamide], the IC50 at GST-PLK1, on GST-PLK2 and on GST-PLK3 was 1000 to 10000 nM each time.

As to `CC[C@@H]1C(=O)N(C)c2cnc(-n3cnc(CCN)c3)nc2N1C1CCCC1` [Example 62, (R)-2-(4-(2-aminoethyl)-1H-imidazol-1-yl)-8-cyclopentyl-7-ethyl-5-methyl-7,8-dihydropteridin-6(5H)-one], the IC50 at GST-PLK1 is 10000 to 50000 nM; at GST-PLK2 it was under 1000 nM; at GST-PLK3, 10000 to 50000 nM.

As for `CC[C@@H]1C(=O)N(C)c2cnc(-n3ccc(C(N)=O)n3)nc2N1C1CCCC1` [Example 63, (R)-1-(8-cyclopentyl-7-ethyl-5-methyl-6-oxo-5,6,7,8-tetrahydropteridin-2-yl)-1H-pyrazole-3-carboxamide], the IC50 is 1000 to 10000 nM at GST-PLK1, under 1000 nM at GST-PLK2 and 1000 to 10000 nM on GST-PLK3.

For `CC[C@@H]1C(=O)N(C)c2cnc(-n3ccnc3Br)nc2N1C1CCCC1` [Example 65, (R)-2-(2-bromo-1H-imidazol-1-yl)-8-cyclopentyl-7-ethyl-5-methyl-7,8-dihydropteridin-6(5H)-one], the IC50 was under 1000 nM on GST-PLK1, under 1000 nM on GST-PLK2 and 10000 to 50000 nM on GST-PLK3.

Consider `CC[C@@H]1C(=O)N(C)c2cnc(-n3cnc(C(N)=O)c3)nc2N1C1CCCC1` [Example 69, (R)-1-(8-cyclopentyl-7-ethyl-5-methyl-6-oxo-5,6,7,8-tetrahydropteridin-2-yl)-1H-imidazole-4-carboxamide], for which the IC50 was under 1000 nM at GST-PLK1, under 1000 nM at GST-PLK2 and 1000 to 10000 nM on GST-PLK3.

Regarding `CC[C@@H]1C(=O)N(C)c2cnc(-n3ccc(=N)cc3)nc2N1C1CCCC1` [Example 73, (R)-8-cyclopentyl-7-ethyl-2-(4-iminopyridin-1(4H)-yl)-5-methyl-7,8-dihydropteridin-6(5H)-one], the IC50 was 10000 to 50000 nM at GST-PLK1, 1000 to 10000 nM on GST-PLK2 and over 50000 nM on GST-PLK3.

Regarding `CC[C@@H]1C(=O)N(C)c2cnc(-n3ccnc3N3CCOC3=O)nc2N1C1CCCC1` [Example 78, (R)-3-(1-(8-cyclopentyl-7-ethyl-5-methyl-6-oxo-5,6,7,8-tetrahydropteridin-2-yl)-1H-imidazol-2-yl)oxazolidin-2-one], the results for the IC50 on GST-PLK1, at GST-PLK2 and on GST-PLK3 were 1000 to 10000 nM, under 1000 nM and 10000 to 50000 nM, respectively.

As for `CC[C@@H]1C(=O)N(C)c2cnc(-n3ccnc3-c3ccc(S(C)(=O)=O)cc3)nc2N1C1CCCC1` [Example 79, (R)-8-cyclopentyl-7-ethyl-5-methyl-2-(2-(4-(methylsulfonyl)phenyl)-1H-imidazol-1-yl)-7,8-dihydropteridin-6(5H)-one], the IC50 was 1000 to 10000 nM on GST-PLK1, under 1000 nM at GST-PLK2 and 10000 to 50000 nM on GST-PLK3.

Turning to `CN1C(=O)[C@]2(C)CCCN2c2nc(-n3ccnc3-c3ccccc3)ncc21` [Example 80, (S)-5,6a-dimethyl-2-(2-phenyl-1H-imidazol-1-yl)-6a,7,8,9-tetrahydropyrrolo[2,1-h]pteridin-6(5H)-one], the IC50 on GST-PLK1 was 10000 to 50000 nM; at GST-PLK2, under 1000 nM; on GST-PLK3 it was 10000 to 50000 nM.

On to `CC[C@@H]1C(=O)N(C)c2cnc(-n3ccnc3-c3ccncc3)nc2N1C1CCC1` [Example 81, (R)-8-cyclobutyl-7-ethyl-5-methyl-2-(2-(pyridin-4-yl)-1H-imidazol-1-yl)-7,8-dihydropteridin-6(5H)-one], for which the IC50 is 1000 to 10000 nM on GST-PLK1, under 1000 nM on GST-PLK2 and 10000 to 50000 nM at GST-PLK3.

In the case of `CC[C@@H]1C(=O)N(C)c2cnc(-n3ccnc3-c3ccncc3)nc2N1C1CCCC1` [Example 83, (R)-8-cyclopentyl-7-ethyl-5-methyl-2-(2-(pyridin-4-yl)-1H-imidazol-1-yl)-7,8-dihydropteridin-6(5H)-one], the IC50 on GST-PLK1, on GST-PLK2 and on GST-PLK3 was under 1000 nM throughout.

For `CC[C@@H]1C(=O)N(C)c2cnc(-n3ccnc3-c3cn[nH]c3)nc2N1C1CCCC1` [Example 97, (R)-2-(2-(1H-pyrazol-4-yl)-1H-imidazol-1-yl)-8-cyclopentyl-7-ethyl-5-methyl-7,8-dihydropteridin-6(5H)-one], the IC50 at GST-PLK1, at GST-PLK2 and on GST-PLK3 was under 1000 nM each time.

Turning to `CC[C@@H]1C(=O)N(C)c2cnc(-n3ccnc3-c3ccncc3)nc2N1C1CCOCC1` [Example 100, (R)-7-ethyl-5-methyl-2-(2-(pyridin-4-yl)-1H-imidazol-1-yl)-8-(tetrahydro-2H-pyran-4-yl)-7,8-dihydropteridin-6(5H)-one], the values for the IC50 at GST-PLK1, on GST-PLK2 and on GST-PLK3 were 1000 to 10000 nM, under 1000 nM and 1000 to 10000 nM, respectively.

For the compound `CC[C@@]12CCCN1c1nc(-n3ccnc3-c3ccncc3)ncc1N(C)C2=O` [Example 101, (S)-6a-ethyl-5-methyl-2-(2-(pyridin-4-yl)-1H-imidazol-1-yl)-6a,7,8,9-tetrahydropyrrolo[2,1-h]pteridin-6(5H)-one], the figures for the IC50 at GST-PLK1, at GST-PLK2 and at GST-PLK3 were 10000 to 50000 nM, under 1000 nM and 10000 to 50000 nM, respectively.

Consider `CC[C@@H]1C(=O)N(C)c2cnc(-c3ccncc3)nc2N1C1CCC1` [Example 109, (R)-8-cyclobutyl-7-ethyl-5-methyl-2-(pyridin-4-yl)-7,8-dihydropteridin-6(5H)-one], for which the figures for the IC50 at GST-PLK1, at GST-PLK2 and on GST-PLK3 were 1000 to 10000 nM, under 1000 nM and 10000 to 50000 nM, respectively.

Consider `CC[C@@H]1C(=O)N(C)c2cnc(-c3ccncc3-c3ccccc3)nc2N1C(C)C` [Example 110, (R)-7-ethyl-8-isopropyl-5-methyl-2-(3-phenylpyridin-4-yl)-7,8-dihydropteridin-6(5H)-one], for which the IC50 at GST-PLK1, at GST-PLK2 and on GST-PLK3 was under 1000 nM in each case.

As to `CC[C@@H]1C(=O)N(C)c2cnc(-n3ccnc3)nc2N1C1CCC1` [Example 111, (R)-8-cyclobutyl-7-ethyl-2-(1H-imidazol-1-yl)-5-methyl-7,8-dihydropteridin-6(5H)-one], the results for the IC50 on GST-PLK1, on GST-PLK2 and on GST-PLK3 were 1000 to 10000 nM, under 1000 nM and 10000 to 50000 nM, respectively.

Turning to `CC[C@@H]1C(=O)N(C)c2cnc(-c3cncnc3-c3ccccc3)nc2N1C1CCCC1` [Example 132, (R)-8-cyclopentyl-7-ethyl-5-methyl-2-(4-phenylpyrimidin-5-yl)-7,8-dihydropteridin-6(5H)-one], the IC50 on GST-PLK1, on GST-PLK2 and on GST-PLK3 was under 1000 nM each time.

As to `CC[C@@H]1C(=O)N(C)c2cnc(-c3cnoc3-c3ccccc3)nc2N1C1CCCC1` [Example 133, (R)-8-cyclopentyl-7-ethyl-5-methyl-2-(5-phenylisoxazol-4-yl)-7,8-dihydropteridin-6(5H)-one], the IC50 on GST-PLK1, on GST-PLK2 and at GST-PLK3 was under 1000 nM each time.

As for `CC[C@@H]1C(=O)N(C)c2cnc(-c3cn[nH]c3-c3ccccc3)nc2N1C1CCCC1` [Example 134, (R)-8-cyclopentyl-7-ethyl-5-methyl-2-(5-phenyl-1H-pyrazol-4-yl)-7,8-dihydropteridin-6(5H)-one], the IC50 on GST-PLK1, on GST-PLK2 and at GST-PLK3 was under 1000 nM throughout.
